According to publication PMC5690597, “Suppression and resolution of autoimmune arthritis by rhesus θ-defensin-1, an immunomodulatory macrocyclic peptide” (PLoS ONE, 2017):
Bridge positions count the residues as written; N and C are the ends. Peptide text beside a SMILES is read from it.

Assays:
[1] = tested on: DA-PIA-FLS; assay: FLS proliferation (CyQuant); type: cell-based, DA rat; settings: RTD-1 0–30 μg/ml; 24 or 48 h in culture; DNA staining
Method: (§1) Fibroblast-like synoviocytes (FLS) were isolated by enzymatic digestion of the synovial tissue from DA rats with PIA as previously described. Cells were washed and suspended in DMEM supplemented with 10% fetal bovine serum (Gibco, Grand Island, NY), 30 mg/ml L-glutamine (Sigma), 250 μg/ml amphotericin B (Sigma), and […] gentamicin (Gibco). After overnight culture, non-adherent cells were removed and adherent cells were cultured to approximately 70–90% confluence and passaged following detachment with 0.25% trypsin-EDTA for 3 min at 37°C. All experiments were performed with FLS after at least four passages.
All assays were performed with ≥ 7 replicates.

[2] = tested on: DA rats with advanced PIA; assay: Severe (advanced) pristane-induced arthritis (AS ≥ 12); type: in vivo, rat
Method: Female DA/OlaHsd (D blood group allele and Agouti, also known as Dark Agouti), rats were obtained from Harlan Laboratories (Indianapolis, IN). Animals were allowed to acclimate for 48–72 hours prior to experimental use. Animals were fed standard chow ad lib during a 12-hour day/night cycle. PIA was induced in 5–7 week old animals (90–100 gm) by intradermal injection of 250 μl pristane (Sigma) divided into 3–5 sites at the base of the tail. Animals were monitored daily and disease severity of each limb was scored 0–4 using the method of Brand et al.. The severity scores for all limbs of individual animals were totaled to give an individual’s arthritis severity score (AS) ranging from zero for normal animals to maximum disease score of sixteen. Disease severity was assessed by at least two scorers and the inter-rater agreement (kappa) value was 0.806 as determined using MedCalc Statistical Software version 14.8.1 (MedCalc Software, Ostend, Belgium). In three separate trials, treatment was also blinded to scorers. There was no statistical difference between blinded and unblinded scoring of any treatment cohort. Treatment with saline (vehicle), RTD-1, or anti-arthritic agents was randomized and initiated when an animal first presented with an AS of 3 or more. […]

[3] = tested on: FLS from PIA rats; assay: FLS invasion assay (Matrigel-coated transwell); type: cell-based; settings: RTD-1 0.1 μg/ml; 24 h; 7 different rat DA FLS cell lines, mean
Method: as §1
FLS invasiveness was assayed in vitro using Matrigel-coated inserts in a transwell system (Becton, Dickinson and Company, Franklin Lakes, NJ) as previously described. Briefly, DA rat FLS (70–80% confluent) isolated as described above were suspended at 2.0 × 10^4 cells/well in serum-free DMEM. Cells were placed in the upper compartment of the Matrigel-coated inserts to which RTD-1 was added to final concentrations of 0.1, 1, or 10 μg/ml. The lower compartment contained complete medium with 10% FBS and plates were incubated at 37°C. […] The opposite side of the insert was stained with Crystal Violet (Sigma) and the total number of invading cells was counted at 100X magnification. […]

[4] = molecular target: ADAM17 (Homo sapiens, UniProt P78536); assay: biochemical
Method: (§2) RTD-1 was analyzed for enzymatic inhibition against zinc metalloproteases ADAM17, ADAM10, matrix metalloproteases (MMPs) 1, 2, 3, 8, 9, 13, and 14, and cysteine cathepsins (Cats) B, C, H, K, L, S, and V (Table 1). ADAM10 and ADAM17 activities were measured by release of fluorogenic peptides cleaved from pro-TNF (R&D Systems, Minneapolis, MN). ADAM10 was diluted to 0.05 μg/ml and ADAM17 to 0.1 μg/ml with 25 mM TRIS, 2.5 μM ZnCl2, 0.005% Brij35, pH 9.0 and incubated with 0 to 3 μg/ml RTD-1 dissolved in 0.01% HOAc. Assay was initiated by addition of substrate (10 μM final) and enzymatic activity measured at 37°C (ADAM10) or 22°C (ADAM17) every 30 seconds for 1 h in a SpectraMax M5e fluorometer (Molecular Devices, Sunnyvale, CA) with 320 nm excitation and 405 nm emission.
(§3) Inhibition of MMPs by RTD-1 was performed as described, incubating each enzyme with 0–100 μg/ml of RTD-1. IC50 values were calculated by GraphPad Prism 5.01 (GraphPad Software, San Diego, CA) utilizing a non-linear curve fit of log [inhibitor] versus response with variable slope.

[5] = molecular target: ADAM10 (Homo sapiens, UniProt O14672); assay: biochemical
Method: as §2, §3

[6] = tested on: anti-RTD-1 Ig; assay: RTD-1 immunogenicity analysis (dot immunoblot); type: in vivo, DA and Sprague Dawley rats; settings: 8–42 s.c. injections of 5 mg/kg; serum or plasma
Method: Adult DA or Sprague-Dawley rats were challenged s.c. with 5 mg/kg RTD-1 every day (15–42 injections), or every other day (8 injections). Several animals were boosted 2 months later, prior to serum or plasma collection. Immune responses were analyzed by dot blot on nitrocellulose membranes as described in legend to the figure.

[7] = molecular target: Cathepsin S (Homo sapiens, UniProt P25774); assay: biochemical
Method: (§4) RTD-1 inhibition of Cat B (BPS Bioscience, San Diego, CA) and Cats C, H, K, L, S, and V (R & D Systems) was analyzed in a 96 well format with enzyme-specific substrates per manufacturer’s instructions and as described in Table 1. The activity of each enzyme was determined in the presence of 0 to 50 μg/ml RTD-1.
as §3

[8] = molecular target: Cathepsin H (Homo sapiens, UniProt P09668); assay: biochemical
Method: as §4, §3

[9] = molecular target: Cathepsin K (Homo sapiens, UniProt P43235); assay: biochemical
Method: as §4, §3

[10] = molecular target: Cathepsin V (Homo sapiens, UniProt O60911); assay: biochemical
Method: as §4, §3

[11] = molecular target: Cathepsin B (Homo sapiens, UniProt P07858); assay: biochemical
Method: as §4, §3

[12] = molecular target: Cathepsin C (Homo sapiens, UniProt P53634); assay: biochemical
Method: as §4, §3

[13] = molecular target: Cathepsin L (Homo sapiens, UniProt P07711); assay: biochemical
Method: as §4, §3

Chain of Cathepsin K (P43235 115-329, species assumed): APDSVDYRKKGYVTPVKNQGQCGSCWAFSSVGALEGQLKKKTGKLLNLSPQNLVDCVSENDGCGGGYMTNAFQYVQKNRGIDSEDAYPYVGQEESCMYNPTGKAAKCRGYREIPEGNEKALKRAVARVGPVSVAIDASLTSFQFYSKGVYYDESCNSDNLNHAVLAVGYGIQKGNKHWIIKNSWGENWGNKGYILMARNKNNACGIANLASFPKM
Chain of ADAM10 (O14672 214-748, species assumed): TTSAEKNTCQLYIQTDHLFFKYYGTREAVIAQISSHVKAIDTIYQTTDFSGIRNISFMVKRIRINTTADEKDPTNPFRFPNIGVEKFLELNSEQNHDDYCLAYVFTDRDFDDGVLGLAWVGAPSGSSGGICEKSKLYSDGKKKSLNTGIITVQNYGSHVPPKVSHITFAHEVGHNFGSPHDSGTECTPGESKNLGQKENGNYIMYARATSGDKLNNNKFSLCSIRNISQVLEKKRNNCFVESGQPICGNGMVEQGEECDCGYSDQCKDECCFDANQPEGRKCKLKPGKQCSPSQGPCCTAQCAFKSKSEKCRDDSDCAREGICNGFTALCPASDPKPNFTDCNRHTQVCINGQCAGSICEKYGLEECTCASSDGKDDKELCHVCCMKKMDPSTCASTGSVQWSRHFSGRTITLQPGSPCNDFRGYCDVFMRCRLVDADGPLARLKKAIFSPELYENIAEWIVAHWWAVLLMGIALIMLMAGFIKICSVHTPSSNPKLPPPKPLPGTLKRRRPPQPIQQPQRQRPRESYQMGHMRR
Chain of Cathepsin V (O60911 114-334): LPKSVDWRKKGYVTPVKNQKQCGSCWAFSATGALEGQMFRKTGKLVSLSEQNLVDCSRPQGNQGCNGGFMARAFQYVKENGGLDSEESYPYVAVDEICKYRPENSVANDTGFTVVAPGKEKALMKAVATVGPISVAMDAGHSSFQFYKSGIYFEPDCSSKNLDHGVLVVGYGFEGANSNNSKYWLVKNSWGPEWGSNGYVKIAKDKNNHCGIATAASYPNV
Chain of Cathepsin S (P25774 115-331, species assumed): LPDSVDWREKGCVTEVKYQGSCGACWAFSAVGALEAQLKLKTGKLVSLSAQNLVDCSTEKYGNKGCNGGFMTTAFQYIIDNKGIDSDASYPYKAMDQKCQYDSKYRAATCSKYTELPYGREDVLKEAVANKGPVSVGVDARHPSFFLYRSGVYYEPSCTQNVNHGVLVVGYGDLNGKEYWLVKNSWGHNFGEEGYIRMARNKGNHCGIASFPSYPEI
Chain of Cathepsin H (P09668 98-335, species assumed): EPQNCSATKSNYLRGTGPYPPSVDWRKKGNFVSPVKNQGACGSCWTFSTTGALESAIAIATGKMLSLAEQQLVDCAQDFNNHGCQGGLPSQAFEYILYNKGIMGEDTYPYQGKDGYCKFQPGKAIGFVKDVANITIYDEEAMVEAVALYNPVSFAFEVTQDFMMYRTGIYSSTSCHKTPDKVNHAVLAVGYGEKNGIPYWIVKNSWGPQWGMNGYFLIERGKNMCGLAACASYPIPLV
Chain of Cathepsin C (P53634 25-463, species assumed): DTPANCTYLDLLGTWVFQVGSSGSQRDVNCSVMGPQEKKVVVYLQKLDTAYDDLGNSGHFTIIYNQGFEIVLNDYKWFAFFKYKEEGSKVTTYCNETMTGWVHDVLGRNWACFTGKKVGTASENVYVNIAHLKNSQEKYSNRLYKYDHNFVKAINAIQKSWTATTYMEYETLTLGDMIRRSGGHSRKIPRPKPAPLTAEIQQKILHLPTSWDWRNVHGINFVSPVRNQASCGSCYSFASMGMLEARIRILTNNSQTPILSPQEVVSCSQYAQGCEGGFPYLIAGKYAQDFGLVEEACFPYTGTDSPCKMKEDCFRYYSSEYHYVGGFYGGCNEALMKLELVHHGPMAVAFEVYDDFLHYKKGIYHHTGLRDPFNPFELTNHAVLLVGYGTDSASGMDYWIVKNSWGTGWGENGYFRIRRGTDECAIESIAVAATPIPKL
Chain of ADAM17 (P78536 215-824, species assumed): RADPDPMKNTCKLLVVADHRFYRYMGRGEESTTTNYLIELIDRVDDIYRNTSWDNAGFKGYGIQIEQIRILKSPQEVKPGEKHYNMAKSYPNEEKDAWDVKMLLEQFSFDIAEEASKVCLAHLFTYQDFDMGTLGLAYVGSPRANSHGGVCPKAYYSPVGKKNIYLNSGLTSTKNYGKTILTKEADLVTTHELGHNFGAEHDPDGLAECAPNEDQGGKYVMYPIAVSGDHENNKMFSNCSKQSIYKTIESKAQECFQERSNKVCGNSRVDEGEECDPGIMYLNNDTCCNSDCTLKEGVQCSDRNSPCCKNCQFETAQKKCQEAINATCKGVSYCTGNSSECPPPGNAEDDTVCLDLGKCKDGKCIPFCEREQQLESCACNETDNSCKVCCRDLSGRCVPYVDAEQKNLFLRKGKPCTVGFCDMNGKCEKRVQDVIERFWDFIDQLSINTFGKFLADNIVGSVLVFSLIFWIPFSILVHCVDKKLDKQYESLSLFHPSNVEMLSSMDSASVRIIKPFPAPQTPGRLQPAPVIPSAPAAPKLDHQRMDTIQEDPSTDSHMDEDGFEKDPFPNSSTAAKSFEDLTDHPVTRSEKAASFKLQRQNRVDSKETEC
Chain of Cathepsin L (P07711 114-333, species assumed): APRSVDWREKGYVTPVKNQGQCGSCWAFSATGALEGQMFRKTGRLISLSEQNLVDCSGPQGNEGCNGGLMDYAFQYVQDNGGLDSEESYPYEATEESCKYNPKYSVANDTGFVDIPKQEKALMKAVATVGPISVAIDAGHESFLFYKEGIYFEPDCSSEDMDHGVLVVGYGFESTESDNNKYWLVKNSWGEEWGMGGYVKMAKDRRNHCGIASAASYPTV

CC[C@H](C)[C@@H]1NC(=O)[C@@H]2CSSC[C@H](NC(=O)[C@H](CCCNC(=N)N)NC(=O)[C@@H]3CSSC[C@H](NC1=O)C(=O)N[C@@H]([C@@H](C)O)C(=O)N[C@@H](CCCNC(=N)N)C(=O)NCC(=O)N[C@@H](Cc1ccccc1)C(=O)N3)C(=O)N[C@@H](CC(C)C)C(=O)N[C@H]1CSSC[C@H](NC(=O)[C@H](C(C)C)NC(=O)CNC(=O)[C@H](CCCNC(=N)N)NC(=O)[C@H](CCCNC(=N)N)NC1=O)C(=O)N[C@@H](CCCNC(=N)N)C(=O)N2 [RTD-1, rhesus θ-defensin 1] (cyclo(GFCRCLCRRGVCRCICTR); disulfide 3-16, 5-14, 7-12) was tested, and the “effect on FLS proliferation” value [1] was “dose-dependently suppressed FLS proliferation”, the “resolution of clinical disease by day 15” value ([2]; 5 mg/kg s.c. daily until AS = 0, AS ≥ 12 before treatment) was “complete resolution of clinical disease in all RTD-1 treated rats” and the “RTD-1 treated animals that relapsed with joint disease” value ([2]; after treatment stop and a disease-free interval) was “three of five”. The “inhibition of FLS invasion” value [3] was 50%, the IC50 [4] was 110 ± 40 nM and the IC50 [5] was 450 ± 200 nM. For the same compound, the “humoral response (anti-RTD-1 Ig) by dot immunoblot” value [6] was “No anti-RTD-1 Ig was detected”, the IC50 [7] was over 50000 nM and the IC50 [8] was over 50000 nM. For the same compound, the IC50 ([9]; IC50, substrate z-FR-AMC 10 μM, enzyme 0.77 nM, RTD-1 0-50 μg/ml) was 27 ± 20 nM, the IC50 ([9]; IC50 against cathepsin K, as quoted in running text from Table 1) was about 27 nM and the IC50 [10] was 1800 ± 600 nM. It also gave an IC50 [11] of 1000 ± 100 nM, an IC50 [12] of 3700 ± 600 nM and an IC50 [13] of 1400 ± 300 nM.
